The results in this text go back to patent US10669238B2, “Irreversible bruton's tyrosine kinase inhibitor” (HEFEI INSTITUTES OF PHYSICAL SCIENCE, CHINESE ACADEMY OF …, priority 2016, dated 2020).

Broadly, the IC50 is the point on the concentration scale where inhibition reaches its midpoint.

BTK protein kinase, sequence (Q06187 whole entry): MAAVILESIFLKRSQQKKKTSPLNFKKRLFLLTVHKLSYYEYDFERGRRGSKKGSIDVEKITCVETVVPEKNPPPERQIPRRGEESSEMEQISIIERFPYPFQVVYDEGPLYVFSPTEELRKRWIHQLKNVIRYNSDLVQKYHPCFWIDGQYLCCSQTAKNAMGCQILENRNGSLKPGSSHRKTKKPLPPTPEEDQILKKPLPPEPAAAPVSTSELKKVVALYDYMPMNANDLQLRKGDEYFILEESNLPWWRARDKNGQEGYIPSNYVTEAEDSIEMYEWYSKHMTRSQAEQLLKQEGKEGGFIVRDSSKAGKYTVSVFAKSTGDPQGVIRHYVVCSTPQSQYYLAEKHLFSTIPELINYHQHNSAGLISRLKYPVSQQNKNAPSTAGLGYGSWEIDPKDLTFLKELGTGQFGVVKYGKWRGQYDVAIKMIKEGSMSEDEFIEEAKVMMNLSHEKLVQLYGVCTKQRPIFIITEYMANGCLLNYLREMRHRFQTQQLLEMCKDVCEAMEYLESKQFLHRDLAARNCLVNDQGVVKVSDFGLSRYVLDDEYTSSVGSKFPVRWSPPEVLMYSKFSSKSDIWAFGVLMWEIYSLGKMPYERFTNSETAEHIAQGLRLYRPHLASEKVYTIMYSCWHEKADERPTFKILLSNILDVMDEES

The target in the first experiment is BTK protein kinase (Homo sapiens, UniProt Q06187). Kind of experiment: In vitro enzymatic activity against BTK (ADP-Glo). The note with it: compound with BTK 4 hours at room temperature; ATP 10 μM, 37° C. 1 hour; values given in μM. It is filed as biochemical. The protocol:
In vitro enzymatic activity of the compounds against BTK was determined in a experimental assay of in vitro enzymatic activity using […] kit (purchased from Progema, USA).
9 μL of BTK protein kinase (at a concentration of 1.5 ng/μL) was used to react with compounds (1 μL) shown in the following table that were diluted three times in gradient at room temperature for 4 hours (the final concentration of the compound being 10 μM, 3 μM, 1 μM, 0.3 μM, 0.1 μM, 0.03 μM, 0.01 μM, 0.003 μM);
2 μL of ATP and 3 μL of the substrate Poly(4:1 Glu, Tyr)Peptide (Promega, USA) (the final concentrations being 10 μM and 0.2 μg/μL, respectively) were added to allow reaction at 37° C. for 1 hour;
5 μL of BTK kinase solution after reaction was taken and added into 5 μL of ADP-Glo™ (Promega, USA) reagent to allow reaction at room temperature for 40 mins so as to terminate the kinase reaction and exhaust the remaining ATP;
10 μL kinase detecting reagent was added to convert ADP to ATP, and newly synthesized ATP was detected using coupled luciferase/[…] reaction, then the IC50 values were calculated by using a plotting method based on the Envision reading.
(In general: In ADP-Glo the light output rises with the ADP produced.)
Compound `C=CC(=O)Nc1cc(Nc2cc(-c3cccc(NC(=O)c4ccccc4)c3C)cn(C)c2=O)ccc1C(=O)N1CCOCC1` [Compound 12, N-(3-(5-((3-acrylamide-4-(morpholin-4-carbonyl)phenyl)amino)-1-methyl-6-oxo-1,6-dihydropyridin-3-yl)-2-methylphenyl)benzoylamide] gave an IC50 of 4.62 µM.

The same experiment, now with this note: compound with BTK 4 hours at room temperature; ATP 10 μM, 37° C. 1 hour; values in nM.
As for `C=CC(=O)Nc1cc(Nc2cc(-c3cccc(NC(=O)c4ccc(C(C)(C)C)cc4)c3C)cn(C)c2=O)ccc1C(=O)N1CCCC1` [Compound 31, N-(3-(5-((3-acrylamide-4-(pyrrolidin-1-carbonyl)phenyl)amino)-1-methyl-6-oxo-1,6-dihydropyridin-3-yl)-2-methylphenyl)-4-(tert-butyl)benzamide], 0.019 µM corresponded to half-maximal inhibition (IC50).

For `C=CC(=O)Nc1cc(Nc2cc(-c3cccc(NC(=O)c4cc5ccccc5s4)c3C)cn(C)c2=O)ccc1C(=O)N1CCOCC1` [Compound 68, N-(3-(5-((3-acrylamide-4-(morpholin-4-carbonyl)phenyl)amino)-1-methyl-6-oxo-1,6-dihydropyridin-3-yl)-2-methylphenyl)benzo[b]thiophene-2-carboxamide], the half-maximal inhibitory concentration (IC50) is 0.022 µM.

`C=CC(=O)Nc1cc(Nc2cc(-c3cccc(NC(=O)c4cc5c(s4)CCCC5)c3C)cn(C)c2=O)ccc1C(=O)N1CCOCC1` [Compound 65, N-(3-(5-((3-acrylamide-4-(morpholin-4-carbonyl)phenyl)amino)-1-methyl-6-oxo-1,6-dihydropyridin-3-yl)-2-methylphenyl)-4,5,6,7-tetrahydrobenzo[b]thiophene-2-carboxamide] came in with an IC50 of 0.025 µM.

Consider `Cc1c(NC(=O)c2ccc(N(C)C)cc2)cccc1-c1cc(Nc2ccc(C(=O)N3CCOCC3)c(NC(=O)CCl)c2)c(=O)n(C)c1` [Compound 36, N-(3-(5-((3-chloroacetamide-4-(morpholin-4-carbonyl)phenyl)amino)-1-methyl-6-oxo-1,6-dihydropyridin-3-yl)-2-methylphenyl)-4-(dimethylamino)benzoylamide], for which the 50% inhibitory concentration (IC50) is 0.024 µM.

For `CCC(=O)Nc1cc(Nc2cc(-c3cccc(NC(=O)c4ccc(C(C)(C)C)cc4)c3C)cn(C)c2=O)ccc1C(=O)N1CCCC1` [Compound 33, N-(3-(5-((3-propanamide-4-(pyrrolidin-1-carbonyl)phenyl)amino)-1-methyl-6-oxo-1,6-dihydropyridin-3-yl)-2-methylphenyl)-4-(tert-butyl)benzamide], half-maximal inhibition (IC50) required 0.165 µM.

As to `CCC(=O)Nc1cc(Nc2cc(-c3cccc(NC(=O)c4ccc(C(C)(C)C)cc4)c3C)cn(C)c2=O)ccc1C(=O)N(C)C` [Compound 30, 2-propanamide-4-((5-(3-(4-(tert-butyl)benzamide)-2-methylphenyl)-1-methyl-2-oxo-1,2-dihydropyridin-3-yl)amino)-N,N-dimethylbenzoylamide], the IC50 was 0.339 µM.

In turn, `C=CC(=O)Nc1cc(Nc2cc(-c3cccc(NC(=O)c4ccc(C(C)(C)C)cc4)c3C)cn(C)c2=O)ccc1C(=O)N1CCN(C)CC1` [Compound 3, N-(3-(5-((3-acrylamide-4-(4-methylpiperazin-1-carbonyl)phenyl)amino)-1-methyl-6-oxo-1,6-dihydropyridin-3-yl)-2-methylphenyl)-4-(tert-butyl)benzamide] showed an IC50 of 0.144 µM.

`CCC(=O)Nc1cc(Nc2cc(-c3cccc(NC(=O)c4cc5c(s4)CCCC5)c3C)cn(C)c2=O)ccc1C(=O)N1CCOCC1` [Compound 67, N-(3-(5-((3-propanamide-4-(morpholin-4-carbonyl)phenyl)amino)-1-methyl-6-oxo-1,6-dihydropyridin-3-yl)-2-methylphenyl)-4,5,6,7-tetrahydrobenzo[b]thiophene-2-carboxamide] had an IC50 of 0.025 µM.

In turn, `C=CC(=O)Nc1cc(Nc2cc(-c3cccc(NC(=O)c4cc5c(s4)CCCC5)c3C)cn(C)c2=O)ccc1N1CCC(N(C)C)CC1` [Compound 83, N-(3-(5-((3-acrylamide-4-(4-(dimethylamino)piperidin-1-yl)phenyl)amino)-1-methyl-6-oxo-1,6-dihydropyridin-3-yl)-2-methylphenyl)-4,5,6,7-tetrahydrobenzo[b]thiophene-2-carboxamide] gave an IC50 of 0.0167 µM.

Compound `C=CC(=O)Nc1cc(Nc2cc(-c3cccc(NC(=O)c4cc5ccccc5s4)c3C)cn(C)c2=O)ccc1N(C)C` [Compound 93, N-(3-(5-((3-acrylamide-4-(dimethylamino)phenyl)amino)-1-methyl-6-oxo-1,6-dihydropyridin-3-yl)-2-methylphenyl)benzo[b]thiophene-2-carboxamide] registered an IC50 of 0.0154 µM.

Compound `C=CC(=O)Nc1cc(Nc2cc(-c3cccc(NC(=O)c4ccc(CC)cc4)c3C)cn(C)c2=O)ccc1C(=O)N1CCOCC1` [Compound 62, N-(3-(5-((3-acrylamide-4-(morpholin-4-carbonyl)phenyl)amino)-1-methyl-6-oxo-1,6-dihydropyridin-3-yl)-2-methylphenyl)-4-ethylbenzoylamide] displayed an IC50 of 0.164 µM.

`C=CC(=O)Nc1cc(Nc2cc(-c3cccc(NC(=O)c4cc5ccccc5s4)c3C)cn(C)c2=O)ccc1N1CCN(CC)CC1` [Compound 91, N-(3-(5-((3-acrylamide-4-(4-ethylpiperazin-1-yl)phenyl)amino)-1-methyl-6-oxo-1,6-dihydropyridin-3-yl)-2-methylphenyl)benzo[b]thiophene-2-carboxamide] yielded an IC50 of 0.156 µM.

The compound `Cc1c(NC(=O)c2ccc(N3CCOCC3)cc2)cccc1-c1cc(Nc2ccc(C(=O)N3CCOCC3)c(NC(=O)CCl)c2)c(=O)n(C)c1` [Compound 16, N-(3-(5-((3-chloroacetamide-4-(morpholin-4-carbonyl)phenyl)amino)-1-methyl-6-oxo-1,6-dihydropyridin-3-yl)-2-methylphenyl)-4-morpholinbenzoylamide] had an IC50 of 0.437 µM.

For `C=CC(=O)Nc1cc(Nc2cc(-c3cccc(NC(=O)c4ccc(N5CCCC5)cc4)c3C)cn(C)c2=O)ccc1C(=O)N1CCOCC1` [Compound 45, N-(3-(5-((3-acrylamide-4-(morpholin-4-carbonyl)phenyl)amino)-1-methyl-6-oxo-1,6-dihydropyridin-3-yl)-2-methylphenyl)-4-(pyrrolidin-1-yl)benzoylamide], the IC50 worked out at 0.101 µM.

With `C=CC(=O)Nc1cc(Nc2cc(-c3cccc(NC(=O)c4cc5c(s4)CCCC5)c3C)cn(C)c2=O)ccc1N1CCN(C)CC1` [Compound 75, N-(3-(5-((3-acrylamide-4-(4-methylpiperazin-1-yl)phenyl)amino)-1-methyl-6-oxo-1,6-dihydropyridin-3-yl)-2-methylphenyl)-4,5,6,7-tetrahydrobenzo[b]thiophene-2-carboxamide], the IC50 stood at 0.007 µM.

In turn, `C=CC(=O)Nc1cc(Nc2cc(-c3cccc(NC(=O)c4ccc(N(C)C)cc4)c3C)cn(C)c2=O)ccc1C(=O)N1CCC(OC)CC1` [Compound 52, N-(3-(5-((3-acrylamide-4-(4-methoxypiperidin-1-carbonyl)phenyl)amino)-1-methyl-6-oxo-1,6-dihydropyridin-3-yl)-2-methylphenyl)-4-(dimethylamino)benzoylamide] returned an IC50 of 0.586 µM.

In turn, `C=CC(=O)Nc1cc(Nc2cc(-c3cccc(NC(=O)c4ccc(C(C)(C)C)cc4)c3C)cn(C)c2=O)ccc1C(=O)N(C)C` [Compound 28, 2-acrylamide-4-((5-(3-(4-(tert-butyl)benzamide)-2-methylphenyl)-1-methyl-2-oxo-1,2-dihydropyridin-3-yl)amino)-N,N-dimethylbenzoylamide] displayed an IC50 of 0.025 µM.

On to `C=CC(=O)Nc1cc(Nc2cc(-c3cccc(NC(=O)c4ccc(C)cc4)c3C)cn(C)c2=O)ccc1C(=O)N1CCOCC1` [Compound 9, N-(3-(5-((3-acrylamide-4-(morpholin-4-carbonyl)phenyl)amino)-1-methyl-6-oxo-1,6-dihydropyridin-3-)-2-methylphenyl)-4-(methyl)benzoylamide], for which the IC50 came to 0.0889 µM.

`C=CC(=O)Nc1cc(Nc2cc(-c3cccc(NC(=O)c4ccc(C)s4)c3C)cn(C)c2=O)ccc1C(=O)N1CCOCC1` [Compound 71, N-(3-(5-((3-acrylamide-4-(morpholin-4-carbonyl)phenyl)amino)-1-methyl-6-oxo-1,6-dihydropyridin-3-yl)-2-methylphenyl)-5-methylthiophene-2-carboxamide]: half-maximal inhibition (IC50) was put at 0.03 µM.

Turning to `Cc1c(NC(=O)c2ccc(C(C)(C)C)cc2)cccc1-c1cc(Nc2ccc(C(=O)N3CCOCC3)c(NC(=O)CCl)c2)c(=O)n(C)c1` [Compound 2, N-(3-(5-((3-chloroacetamide-4-(morpholin-4-carbonyl)phenyl)amino)-1-methyl-6-oxo-1,6-dihydropyridin-3-yl)-2-methylphenyl)-4-(tert-butyl)benzamide], half-maximal inhibition (IC50) required 0.0379 µM.

`C=CC(=O)Nc1cc(Nc2cc(-c3cccc(NC(=O)c4cc5c(s4)CCCC5)c3C)cn(C)c2=O)ccc1C(=O)N1CCCC1` [Compound 69, N-(3-(5-((3-acrylamide-4-(pyrrolidin-1-carbonyl)phenyl)amino)-1-methyl-6-oxo-1,6-dihydropyridin-3-yl)-2-methylphenyl)-4,5,6,7-tetrahydrobenzo[b]thiophene-2-carboxamide] registered an IC50 of 0.0836 µM.
